In US6737441B2, “Treatment of helicobacter with isothiocyanates” (priority 2000, dated 2004):
Values after ≈ are worked out from the molar mass of the structure shown. Where two headings read alike, the source gives them in different places.

Legend:
[1] = system: clarithromycin and/or metronidazole - intermediate or resistant strains of Helicobacter pylori; assay: Bacteriostatic activity (MIC) against intermediate or resistant strains; format: cell-based; details: Helicobacter pylori, read-out: MIC
Helicobacter pylori [2] = system: Helicobacter pylori
[3] = system: amoxicillin/clarithromycin/metronidazole - susceptible strains of Helicobacter pylori; assay: Bacteriostatic activity (MIC) against susceptible strains; format: cell-based; details: for MIC: Helicobacter pylori, read-out: MIC
Helicobacter pylori [4] = assay: microbe, parasite or virus in culture

C[S+]([O-])CCCCN=C=S (stereo not drawn) [Sulforaphane, 4-methylsulfinylbutyl isothiocyanate]
MIC ([1]; H. pylori strain no 33): 4 mg/L (≈ 22.6 µM) | MIC ([1]; H. pylori strain no 34): 0.5 mg/L (≈ 2.82 µM) | MIC ([1]; H. pylori strain no 35): 4 mg/L (≈ 22.6 µM) | MIC ([1]; H. pylori strain no 36): 4 mg/L (≈ 22.6 µM) | MIC ([1]; H. pylori strain no 37): 0.5 mg/L (≈ 2.82 µM) | MIC ([1]; H. pylori strain no 38): 2 mg/L (≈ 11.3 µM) | MIC ([1]; H. pylori strain no 39): 0.5 mg/L (≈ 2.82 µM) | MIC ([1]; H. pylori strain no 40): 4 mg/L (≈ 22.6 µM) | MIC ([1]; H. pylori strain no 41): 0.125 mg/L (≈ 0.705 µM) | MIC ([1]; H. pylori strain no 42): 4 mg/L (≈ 22.6 µM) | MIC ([1]; H. pylori strain no 43): 8 mg/L (≈ 45.1 µM) | MIC ([1]; H. pylori strain no 44): 0.5 mg/L (≈ 2.82 µM) | MIC ([1]; H. pylori strain no 45): 1 mg/L (≈ 5.64 µM) | MIC ([1]; H. pylori strain no 46): 2 mg/L (≈ 11.3 µM) | MIC ([1]; H. pylori strain no 47): 4 mg/L (≈ 22.6 µM) | Time (h) at which 99.9% intracellular killing was observed (Helicobacter pylori [2]; HP 1, 1 × MIC, tested in triplicate): 8 h | Time (h) at which 99.9% intracellular killing was observed (Helicobacter pylori [2]; HP 1, 5 × MIC, tested in triplicate): 8 h | Time (h) at which 99.9% intracellular killing was observed (Helicobacter pylori [2]; HP 1, 10 × MIC, tested in triplicate): 8 h | Time (h) at which 99.9% intracellular killing was observed (Helicobacter pylori [2]; HP 1, 20 × MIC, tested in triplicate): 8 h | Actual reductions (log10CFU) (Helicobacter pylori [2]; HP 2, 2 h, 1x MIC): 0 log10CFU | Actual reductions (log10CFU) (Helicobacter pylori [2]; HP 2, 2 h, 5x MIC): 0 log10CFU | Actual reductions (log10CFU) (Helicobacter pylori [2]; HP 2, 2 h, 10x MIC): 0 log10CFU | Actual reductions (log10CFU) (Helicobacter pylori [2]; HP 2, 2 h, 20x MIC): −0.12 log10CFU | Actual reductions (log10CFU) (Helicobacter pylori [2]; HP 2, 4 h, 1x MIC): −0.79 log10CFU | Actual reductions (log10CFU) (Helicobacter pylori [2]; HP 2, 4 h, 5x MIC): −0.90 log10CFU | Actual reductions (log10CFU) (Helicobacter pylori [2]; HP 2, 4 h, 10x MIC): −1.17 log10CFU | Actual reductions (log10CFU) (Helicobacter pylori [2]; HP 2, 4 h, 20x MIC): −1.30 log10CFU | Actual reductions (log10CFU) (Helicobacter pylori [2]; HP 2, 8 h, 1x MIC): −0.90 log10CFU | Actual reductions (log10CFU) (Helicobacter pylori [2]; HP 2, 8 h, 5x MIC): −0.90 log10CFU | Actual reductions (log10CFU) (Helicobacter pylori [2]; HP 2, 8 h, 10x MIC): −1.30 log10CFU | Actual reductions (log10CFU) (Helicobacter pylori [2]; HP 2, 8 h, 20x MIC): −1.40 log10CFU | Actual reductions (log10CFU) (Helicobacter pylori [2]; HP 2, 24 h, 1x MIC): −1.18 log10CFU | Actual reductions (log10CFU) (Helicobacter pylori [2]; HP 2, 24 h, 5x MIC): −1.20 log10CFU | Actual reductions (log10CFU) (Helicobacter pylori [2]; HP 2, 24 h, 10x MIC): −1.34 log10CFU | Actual reductions (log10CFU) (Helicobacter pylori [2]; HP 2, 24 h, 20x MIC): −1.40 log10CFU | Actual reductions (log10CFU) (Helicobacter pylori [2]; HP 2, 48 h, 1x MIC): −1.20 log10CFU | Actual reductions (log10CFU) (Helicobacter pylori [2]; HP 2, 48 h, 5x MIC): −1.20 log10CFU | Actual reductions (log10CFU) (Helicobacter pylori [2]; HP 2, 48 h, 10x MIC): −1.40 log10CFU | Actual reductions (log10CFU) (Helicobacter pylori [2]; HP 2, 48 h, 20x MIC): −1.40 log10CFU | Time (h) at which 99.9% intracellular killing was observed (Helicobacter pylori [2]; HP 3, 1 × MIC, tested in triplicate): 4 h | Time (h) at which 99.9% intracellular killing was observed (Helicobacter pylori [2]; HP 3, 5 × MIC, tested in triplicate): 4 h | Time (h) at which 99.9% intracellular killing was observed (Helicobacter pylori [2]; HP 3, 10 × MIC, tested in triplicate): 4 h | Time (h) at which 99.9% intracellular killing was observed (Helicobacter pylori [2]; HP 3, 20 × MIC, tested in triplicate): 2 h | Time (h) at which 99.9% intracellular killing was observed (Helicobacter pylori [2]; HP 4, 1 × MIC, tested in duplicate, not definitive): 8 h | Time (h) at which 99.9% intracellular killing was observed (Helicobacter pylori [2]; HP 4, 5 × MIC, tested in duplicate, not definitive): 8 h | Time (h) at which 99.9% intracellular killing was observed (Helicobacter pylori [2]; HP 4, 10 × MIC, tested in duplicate, not definitive): 8 h | Time (h) at which 99.9% intracellular killing was observed (Helicobacter pylori [2]; HP 4, 20 × MIC, tested in duplicate, not definitive): 4 h | MIC ([3]; H. pylori strain no 1): 2 mg/L (≈ 11.3 µM) | MIC ([3]; H. pylori strain no 2): 4 mg/L (≈ 22.6 µM) | MIC ([3]; H. pylori strain no 3): 2 mg/L (≈ 11.3 µM) | MIC ([3]; H. pylori strain no 4): 4 mg/L (≈ 22.6 µM) | MIC ([3]; H. pylori strain no 5): 4 mg/L (≈ 22.6 µM) | MIC ([3]; H. pylori strain no 6): 0.06 mg/L (≈ 0.338 µM) | MIC ([3]; H. pylori strain no 7): 0.06 mg/L (≈ 0.338 µM) | MIC ([3]; H. pylori strain no 8): 0.5 mg/L (≈ 2.82 µM) | MIC ([3]; H. pylori strain no 9): 2 mg/L (≈ 11.3 µM) | MIC ([3]; H. pylori strain no 10): 0.06 mg/L (≈ 0.338 µM) | MIC ([3]; H. pylori strain no 11): 2 mg/L (≈ 11.3 µM) | MIC ([3]; H. pylori strain no 12): 4 mg/L (≈ 22.6 µM) | MIC ([3]; H. pylori strain no 13): 4 mg/L (≈ 22.6 µM) | MIC ([3]; H. pylori strain no 14): 0.06 mg/L (≈ 0.338 µM) | MIC ([3]; H. pylori strain no 15): 0.06 mg/L (≈ 0.338 µM) | MIC ([3]; H. pylori strain no 16): 1 mg/L (≈ 5.64 µM) | MIC ([3]; H. pylori strain no 17): 0.5 mg/L (≈ 2.82 µM) | MIC ([3]; H. pylori strain no 18): 0.5 mg/L (≈ 2.82 µM) | MIC ([3]; H. pylori strain no 19): 2 mg/L (≈ 11.3 µM) | MIC ([3]; H. pylori strain no 20): 0.5 mg/L (≈ 2.82 µM) | MIC ([3]; H. pylori strain no 21): 0.5 mg/L (≈ 2.82 µM) | MIC ([3]; H. pylori strain no 22): 0.06 mg/L (≈ 0.338 µM) | MIC ([3]; H. pylori strain no 23): 0.06 mg/L (≈ 0.338 µM) | MIC ([3]; H. pylori strain no 24): 1 mg/L (≈ 5.64 µM) | MIC ([3]; H. pylori strain no 25): 0.5 mg/L (≈ 2.82 µM) | MIC ([3]; H. pylori strain no 26): 0.5 mg/L (≈ 2.82 µM) | MIC ([3]; H. pylori strain no 27): 0.06 mg/L (≈ 0.338 µM) | MIC ([3]; H. pylori strain no 28): 0.5 mg/L (≈ 2.82 µM) | MIC ([3]; H. pylori strain no 29): 2 mg/L (≈ 11.3 µM) | MIC ([3]; H. pylori strain no 30): 0.06 mg/L (≈ 0.338 µM) | MIC ([3]; H. pylori strain no 31): 4 mg/L (≈ 22.6 µM) | MIC ([3]; H. pylori strain no 32): 2 mg/L (≈ 11.3 µM) | inhibiting the growth of H. pylori compared to traditional antibiotics ([3]; versus amoxycillin, clarithromycin and metronidazole, several strains (Tables 1 and 2)): as effective, if not more effective | MIC (Helicobacter pylori [4]; strain HP 1): 2 mg/L (≈ 11.3 µM) | MIC (Helicobacter pylori [4]; strain HP 2): 2 mg/L (≈ 11.3 µM) | MIC (Helicobacter pylori [4]; strain HP 3): 4 mg/L (≈ 22.6 µM) | MIC (Helicobacter pylori [4]; strain HP 4): 0.06 mg/L (≈ 0.338 µM)
